Assay results taken from patent publication US20250304596A1, “PYRAZINE DERIVATIVES AND USES THEREOF” (FOGHORN THERAPEUTICS INC., priority 2022, published 2025).

Key:
HiBit-BRM fusion protein = biological target: T1, HiBit-BRM fusion protein (Homo sapiens, UniProt P51531); assay: HiBiT-BRM cell-based degradation assay (Nano-Glo HiBiT Lytic Detection, 24 h); settings: stable HeLa cell line expressing HiBiT-BRM; for DC50: read-out: BRM HiBit Degradation IC50
T1 construct: expressed in transfected cells
How it was run: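 A stable HeLa line expressing HiBiT-BRM was treated for 24 h with compound in a 10-point, 3-fold series (30 μM final top dose). Remaining HiBiT-BRM was read by lytic LgBiT complementation luminescence. % degradation was normalised to DMSO (high control) and 2 μM reference BRM/BRG1 degrader (low control).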

[1] = biological target: T2, HiBit-BRG1 fusion protein (Homo sapiens, UniProt P51532); assay: HiBiT-BRG1 cell-based degradation assay (Nano-Glo HiBiT Lytic Detection, 24 h); settings: stable HeLa cell line expressing HiBit-BRG1 and LgBit; for Dmax: read-out: BRG1 HiBit Degradation Maximum (%); for DC50: read-out: BRMG1 HiBit Degradation IC50
T2 construct: expressed in transfected cells
How it was run: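 HeLa cells stably expressing HiBit-BRG1 and LgBit, treated 24 h with 3-fold dilutions (10 points, duplicate, 30 μM final top dose). Luminescence read after Nano-Glo HiBiT lytic reagent; % degradation scaled between DMSO (high) and 2 μM reference BRM/BRG1 degrader (low control).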

T2 sequence (P51532 whole entry, the tested form may be a part): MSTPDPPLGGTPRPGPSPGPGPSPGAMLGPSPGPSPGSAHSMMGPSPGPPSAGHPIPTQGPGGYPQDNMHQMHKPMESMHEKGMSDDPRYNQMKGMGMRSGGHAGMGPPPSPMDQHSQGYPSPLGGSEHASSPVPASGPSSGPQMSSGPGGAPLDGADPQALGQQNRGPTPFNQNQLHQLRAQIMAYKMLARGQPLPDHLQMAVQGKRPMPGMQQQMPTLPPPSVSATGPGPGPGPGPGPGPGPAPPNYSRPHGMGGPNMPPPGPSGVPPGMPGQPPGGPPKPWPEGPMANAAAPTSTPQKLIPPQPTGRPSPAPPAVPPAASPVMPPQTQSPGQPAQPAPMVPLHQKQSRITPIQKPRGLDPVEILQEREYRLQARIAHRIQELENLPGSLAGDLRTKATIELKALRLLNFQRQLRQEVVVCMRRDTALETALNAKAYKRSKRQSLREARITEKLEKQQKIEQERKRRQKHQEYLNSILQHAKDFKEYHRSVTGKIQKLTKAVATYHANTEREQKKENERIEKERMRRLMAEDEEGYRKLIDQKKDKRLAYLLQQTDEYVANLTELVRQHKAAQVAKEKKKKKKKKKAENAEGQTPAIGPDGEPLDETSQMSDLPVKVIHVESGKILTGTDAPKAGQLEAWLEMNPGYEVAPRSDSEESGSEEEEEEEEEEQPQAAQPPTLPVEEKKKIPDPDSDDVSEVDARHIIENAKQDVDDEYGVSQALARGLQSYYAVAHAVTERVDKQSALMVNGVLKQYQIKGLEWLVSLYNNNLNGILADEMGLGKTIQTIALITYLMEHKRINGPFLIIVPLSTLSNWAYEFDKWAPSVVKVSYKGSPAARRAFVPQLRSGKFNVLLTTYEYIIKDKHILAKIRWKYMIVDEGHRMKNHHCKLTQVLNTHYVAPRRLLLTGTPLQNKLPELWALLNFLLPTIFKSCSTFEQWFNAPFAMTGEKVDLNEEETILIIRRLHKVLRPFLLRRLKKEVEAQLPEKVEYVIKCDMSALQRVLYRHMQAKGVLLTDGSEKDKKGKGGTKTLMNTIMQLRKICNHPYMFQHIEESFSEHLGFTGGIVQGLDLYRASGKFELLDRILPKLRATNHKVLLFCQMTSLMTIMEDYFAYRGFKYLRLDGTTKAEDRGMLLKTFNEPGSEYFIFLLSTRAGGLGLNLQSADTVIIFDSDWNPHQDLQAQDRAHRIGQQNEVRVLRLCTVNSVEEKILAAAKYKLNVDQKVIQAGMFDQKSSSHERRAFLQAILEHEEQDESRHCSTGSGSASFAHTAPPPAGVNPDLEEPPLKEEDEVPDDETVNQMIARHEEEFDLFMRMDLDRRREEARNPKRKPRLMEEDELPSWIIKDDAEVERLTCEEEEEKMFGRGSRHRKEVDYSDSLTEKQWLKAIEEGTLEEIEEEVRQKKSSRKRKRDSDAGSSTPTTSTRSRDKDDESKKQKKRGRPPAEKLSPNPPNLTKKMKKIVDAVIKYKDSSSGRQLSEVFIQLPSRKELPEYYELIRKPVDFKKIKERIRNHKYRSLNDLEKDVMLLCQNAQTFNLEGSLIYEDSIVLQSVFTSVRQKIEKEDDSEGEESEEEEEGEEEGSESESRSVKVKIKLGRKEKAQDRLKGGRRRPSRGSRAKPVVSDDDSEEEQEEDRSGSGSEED
T1 sequence (P51531 whole entry, the tested form may be a part): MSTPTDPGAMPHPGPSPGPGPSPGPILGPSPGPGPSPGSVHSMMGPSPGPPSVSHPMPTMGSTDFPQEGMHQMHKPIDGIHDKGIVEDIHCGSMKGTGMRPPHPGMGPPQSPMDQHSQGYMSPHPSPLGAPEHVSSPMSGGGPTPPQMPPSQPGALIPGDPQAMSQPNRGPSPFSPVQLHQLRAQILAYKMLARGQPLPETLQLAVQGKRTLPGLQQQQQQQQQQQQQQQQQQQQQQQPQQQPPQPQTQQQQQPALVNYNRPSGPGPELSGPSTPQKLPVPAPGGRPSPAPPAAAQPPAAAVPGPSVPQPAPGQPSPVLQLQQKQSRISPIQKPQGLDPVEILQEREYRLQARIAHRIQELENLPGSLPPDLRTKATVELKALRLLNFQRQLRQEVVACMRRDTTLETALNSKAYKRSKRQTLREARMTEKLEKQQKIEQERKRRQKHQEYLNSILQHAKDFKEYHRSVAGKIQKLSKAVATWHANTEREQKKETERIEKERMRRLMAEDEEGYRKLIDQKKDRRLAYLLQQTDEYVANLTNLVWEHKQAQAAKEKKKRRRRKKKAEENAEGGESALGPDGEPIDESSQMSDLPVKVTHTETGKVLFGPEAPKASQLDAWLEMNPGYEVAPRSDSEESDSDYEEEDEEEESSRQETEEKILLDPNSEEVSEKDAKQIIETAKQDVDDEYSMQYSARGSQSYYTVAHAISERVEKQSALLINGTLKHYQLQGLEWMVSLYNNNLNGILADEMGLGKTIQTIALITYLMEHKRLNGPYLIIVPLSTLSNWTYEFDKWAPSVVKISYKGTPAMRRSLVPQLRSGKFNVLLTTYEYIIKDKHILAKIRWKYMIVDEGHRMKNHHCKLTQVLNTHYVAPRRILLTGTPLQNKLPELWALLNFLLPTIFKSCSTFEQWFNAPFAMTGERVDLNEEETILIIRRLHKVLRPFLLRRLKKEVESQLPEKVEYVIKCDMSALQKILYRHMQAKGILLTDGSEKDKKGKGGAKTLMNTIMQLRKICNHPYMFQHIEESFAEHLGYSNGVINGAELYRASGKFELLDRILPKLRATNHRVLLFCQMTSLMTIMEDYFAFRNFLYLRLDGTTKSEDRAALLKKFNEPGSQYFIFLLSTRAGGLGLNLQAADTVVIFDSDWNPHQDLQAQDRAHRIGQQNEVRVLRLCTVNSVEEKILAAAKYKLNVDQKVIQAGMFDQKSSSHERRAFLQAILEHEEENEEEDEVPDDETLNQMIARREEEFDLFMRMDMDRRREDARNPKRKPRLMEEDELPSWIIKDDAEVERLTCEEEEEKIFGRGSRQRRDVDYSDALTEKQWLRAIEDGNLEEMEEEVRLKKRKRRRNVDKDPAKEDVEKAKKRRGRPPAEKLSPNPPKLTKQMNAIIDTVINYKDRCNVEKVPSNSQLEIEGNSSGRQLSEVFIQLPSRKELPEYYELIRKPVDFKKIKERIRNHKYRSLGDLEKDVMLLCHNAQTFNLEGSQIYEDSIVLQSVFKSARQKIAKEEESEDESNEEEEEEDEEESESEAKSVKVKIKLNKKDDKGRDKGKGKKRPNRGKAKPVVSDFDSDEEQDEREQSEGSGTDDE

SMILES	DC50 (HiBit-BRM fusion protein)	Dmax [1]	DC50 [1]	BRM HiBit Degradation Maximum (%) (HiBit-BRM fusion protein)
Cc1ncsc1-c1ccc([C@H](C)NC(=O)[C@@H]2C[C@@H](O)CN2C(=O)C(c2cc([C@H]3CC[C@H](c4cnc(N5CCC(c6sc7nnc(-c8ccccc8O)cc7c6C)CC5)nc4)CC3)no2)C(C)C)cc1 (stereo partly drawn) [Compound 64, (2S,4R)-4-hydroxy-1-((R)-2-(3-((1s,4S)-4-(2-(4-(3-(2-hydroxyphenyl)-5-methylthieno[2,3-c]pyridazin-6-yl)piperidin-1-yl)pyrimidin-5-yl)cyclohexyl)isoxazol-5-yl)-3-methylbutanoyl)-N—((S)-1-(4-(4-methylthiazol-5-yl)phenyl)ethyl)pyrrolidine-2-carboxamide]	< 10 nM	> 75%	> 10 nM	A (“A” indicates maximum degradation ≥75%)
Cc1ncsc1-c1ccc([C@H](C)NC(=O)[C@@H]2C[C@@H](O)CN2C(=O)[C@@H](c2cc(-c3cnc(N4CCC5(CC4)CC(c4sc6nnc(-c7ccccc7O)cc6c4C)C5)nc3)no2)C(C)C)cc1 [Compound 48, (2S,4R)-4-hydroxy-1-((R)-2-(3-(2-(2-(3-(2-hydroxyphenyl)-5-methylthieno[2,3-c]pyridazin-6-yl)-7-azaspiro[3.5]nonan-7-yl)pyrimidin-5-yl)isoxazol-5-yl)-3-methylbutanoyl)-N-((S)-1-(4-(4-methylthiazol-5-yl)phenyl)ethyl)pyrrolidine-2-carboxamide]	> 10 nM	< 50%	> 1000 nM	A (“A” indicates maximum degradation ≥75%)
Cc1ncsc1-c1ccc([C@H](C)NC(=O)[C@@H]2C[C@@H](O)CN2C(=O)[C@@H](c2cc(-c3cnc(N4CCC(c5cc6nnc(-c7ccccc7O)cc6s5)CC4)nc3)no2)C(C)C)cc1 [Compound 55, (2S,4R)-4-hydroxy-1-((R)-2-(3-(2-(4-(3-(2-hydroxyphenyl)thieno[3,2-c]pyridazin-6-yl)piperidin-1-yl)pyrimidin-5-yl)isoxazol-5-yl)-3-methylbutanoyl)-N-((S)-1-(4-(4-methylthiazol-5-yl)phenyl)ethyl)pyrrolidine-2-carboxamide]	< 10 nM	< 50%	> 1000 nM	A (“A” indicates maximum degradation ≥75%)

Continued, in another order:

DC50 (HiBit-BRM fusion protein)	Dmax [1]	DC50 [1]	SMILES	BRM HiBit Degradation Maximum (%) (HiBit-BRM fusion protein)
< 10 nM	> 75%	> 10 nM	Cc1ncsc1-c1ccc([C@H](C)NC(=O)[C@@H]2C[C@@H](O)CN2C(=O)[C@@H](c2cc(-c3ccnc(N4CCC(c5sc6nnc(-c7ccccc7O)cc6c5C)CC4)n3)no2)C(C)C)cc1 [Compound 58, (2S,4R)-4-hydroxy-1-((R)-2-(3-(2-(4-(3-(2-hydroxyphenyl)-5-methylthieno[2,3-c]pyridazin-6-yl)piperidin-1-yl)pyrimidin-4-yl)isoxazol-5-yl)-3-methylbutanoyl)-N-((S)-1-(4-(4-methylthiazol-5-yl)phenyl)ethyl)pyrrolidine-2-carboxamide]	A (“A” indicates maximum degradation ≥75%)
< 10 nM	> 75%	> 10 nM	Cc1ncsc1-c1ccc([C@H](C)NC(=O)[C@@H]2C[C@@H](O)CN2C(=O)[C@@H](c2cc(-c3cnc(N4CCN(c5sc6nnc(-c7ccccc7O)cc6c5C)CC4)nc3)no2)C(C)C)cc1 [Compound 53, (2S,4R)-4-hydroxy-1-((R)-2-(3-(2-(4-(3-(2-hydroxyphenyl)-5-methylthieno[2,3-c]pyridazin-6-yl)piperazin-1-yl)pyrimidin-5-yl)isoxazol-5-yl)-3-methylbutanoyl)-N-((S)-1-(4-(4-methylthiazol-5-yl)phenyl)ethyl)pyrrolidine-2-carboxamide]	A (“A” indicates maximum degradation ≥75%)
